Experiments:
Experiment in all cases: split-luciferase competition binding
AKT1 (human) = AKT1 (human) (UniProt P31749); details: compound 10.0 µM
AKT2 (human) = AKT2 (human) (UniProt P31751); details: compound 10.0 µM
AKT3 (human) = AKT3 (human) (UniProt Q9Y243); details: compound 10.0 µM
AURKA (human) = AURKA (human) (UniProt O14965); details: compound 10.0 µM
AURKB (human) = AURKB (human) (UniProt Q96GD4); details: compound 10.0 µM
AURKC (human) = AURKC (human) (UniProt Q9UQB9); details: compound 10.0 µM
DMPK (human) = DMPK (human) (UniProt Q09013); details: compound 10.0 µM
PDPK1 (human) = PDPK1 (human) (UniProt O15530); details: compound 10.0 µM
PKN1 (human) = PKN1 (human) (UniProt Q16512); details: compound 10.0 µM
PRKACA (mouse) = details: compound 10.0 µM; accession and sequence are those of the human protein
PRKACB (human) = PRKACB (human) (UniProt P22694); details: compound 10.0 µM
PRKCD (human) = PRKCD (human) (UniProt Q05655); details: compound 10.0 µM
Chain of PRKCD (human) (Q05655 whole entry, looked up): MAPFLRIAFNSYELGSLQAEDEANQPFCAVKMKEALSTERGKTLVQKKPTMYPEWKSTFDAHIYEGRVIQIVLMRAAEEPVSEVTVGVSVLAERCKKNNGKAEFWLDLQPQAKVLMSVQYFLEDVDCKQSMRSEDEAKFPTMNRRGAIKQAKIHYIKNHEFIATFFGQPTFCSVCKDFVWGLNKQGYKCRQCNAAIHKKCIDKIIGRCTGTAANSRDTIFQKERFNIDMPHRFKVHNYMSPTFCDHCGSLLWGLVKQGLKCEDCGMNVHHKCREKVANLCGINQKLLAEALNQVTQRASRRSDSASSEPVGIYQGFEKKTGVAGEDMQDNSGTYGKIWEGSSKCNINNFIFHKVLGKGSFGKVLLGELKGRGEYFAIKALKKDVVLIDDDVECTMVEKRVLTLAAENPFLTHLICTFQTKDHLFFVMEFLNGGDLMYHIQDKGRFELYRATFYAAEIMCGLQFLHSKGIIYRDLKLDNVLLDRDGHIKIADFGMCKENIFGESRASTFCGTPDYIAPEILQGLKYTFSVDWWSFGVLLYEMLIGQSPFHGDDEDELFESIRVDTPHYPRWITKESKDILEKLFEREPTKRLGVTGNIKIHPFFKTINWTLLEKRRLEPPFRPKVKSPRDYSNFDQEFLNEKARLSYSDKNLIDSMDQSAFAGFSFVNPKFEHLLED

PRKCE (human) = PRKCE (human) (UniProt Q02156); details: compound 10.0 µM
Chain of PRKCE (human) (Q02156 whole entry, looked up): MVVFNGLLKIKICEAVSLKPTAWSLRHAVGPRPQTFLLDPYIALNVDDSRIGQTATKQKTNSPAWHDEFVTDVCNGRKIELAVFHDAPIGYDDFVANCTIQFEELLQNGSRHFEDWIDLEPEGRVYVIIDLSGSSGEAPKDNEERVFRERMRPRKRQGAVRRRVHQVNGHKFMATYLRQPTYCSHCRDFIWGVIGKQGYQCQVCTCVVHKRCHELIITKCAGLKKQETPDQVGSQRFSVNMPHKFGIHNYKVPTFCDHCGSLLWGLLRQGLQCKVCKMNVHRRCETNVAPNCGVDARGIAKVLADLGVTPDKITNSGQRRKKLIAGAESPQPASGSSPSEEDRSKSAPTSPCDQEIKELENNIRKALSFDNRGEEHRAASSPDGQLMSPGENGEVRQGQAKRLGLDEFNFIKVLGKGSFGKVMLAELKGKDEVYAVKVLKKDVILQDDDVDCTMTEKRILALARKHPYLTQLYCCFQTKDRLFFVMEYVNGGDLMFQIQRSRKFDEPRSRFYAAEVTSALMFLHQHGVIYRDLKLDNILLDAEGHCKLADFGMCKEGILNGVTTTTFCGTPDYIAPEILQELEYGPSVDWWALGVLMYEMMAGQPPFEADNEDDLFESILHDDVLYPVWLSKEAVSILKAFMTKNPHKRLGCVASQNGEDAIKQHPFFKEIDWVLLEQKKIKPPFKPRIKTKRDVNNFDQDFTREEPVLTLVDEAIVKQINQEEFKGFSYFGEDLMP

PRKCG (human) = PRKCG (human) (UniProt P05129); details: compound 10.0 µM
PRKCH (human) = PRKCH (human) (UniProt P24723); details: compound 10.0 µM
Chain of PRKCH (human) (P24723 whole entry, looked up): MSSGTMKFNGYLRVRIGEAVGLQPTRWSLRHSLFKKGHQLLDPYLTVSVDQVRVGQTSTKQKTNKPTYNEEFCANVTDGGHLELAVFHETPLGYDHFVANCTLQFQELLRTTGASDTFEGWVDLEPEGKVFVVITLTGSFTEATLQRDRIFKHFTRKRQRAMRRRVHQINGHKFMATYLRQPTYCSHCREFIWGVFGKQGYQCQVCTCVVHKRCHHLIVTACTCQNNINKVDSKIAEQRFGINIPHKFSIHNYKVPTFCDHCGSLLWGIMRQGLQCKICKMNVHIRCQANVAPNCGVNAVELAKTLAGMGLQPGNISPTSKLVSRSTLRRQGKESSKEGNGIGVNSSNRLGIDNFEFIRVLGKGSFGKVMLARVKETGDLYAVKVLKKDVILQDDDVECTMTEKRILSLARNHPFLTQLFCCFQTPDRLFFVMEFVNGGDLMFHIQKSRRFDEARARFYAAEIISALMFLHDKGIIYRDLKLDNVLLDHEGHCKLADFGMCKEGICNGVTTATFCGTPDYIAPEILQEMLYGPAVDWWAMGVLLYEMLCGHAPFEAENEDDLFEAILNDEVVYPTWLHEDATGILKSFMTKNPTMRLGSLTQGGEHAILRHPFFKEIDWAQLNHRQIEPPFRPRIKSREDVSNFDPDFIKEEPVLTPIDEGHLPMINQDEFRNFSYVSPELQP

PRKCI (human) = PRKCI (human) (UniProt P41743); details: compound 10.0 µM
Chain of PRKCI (human) (P41743 whole entry, looked up): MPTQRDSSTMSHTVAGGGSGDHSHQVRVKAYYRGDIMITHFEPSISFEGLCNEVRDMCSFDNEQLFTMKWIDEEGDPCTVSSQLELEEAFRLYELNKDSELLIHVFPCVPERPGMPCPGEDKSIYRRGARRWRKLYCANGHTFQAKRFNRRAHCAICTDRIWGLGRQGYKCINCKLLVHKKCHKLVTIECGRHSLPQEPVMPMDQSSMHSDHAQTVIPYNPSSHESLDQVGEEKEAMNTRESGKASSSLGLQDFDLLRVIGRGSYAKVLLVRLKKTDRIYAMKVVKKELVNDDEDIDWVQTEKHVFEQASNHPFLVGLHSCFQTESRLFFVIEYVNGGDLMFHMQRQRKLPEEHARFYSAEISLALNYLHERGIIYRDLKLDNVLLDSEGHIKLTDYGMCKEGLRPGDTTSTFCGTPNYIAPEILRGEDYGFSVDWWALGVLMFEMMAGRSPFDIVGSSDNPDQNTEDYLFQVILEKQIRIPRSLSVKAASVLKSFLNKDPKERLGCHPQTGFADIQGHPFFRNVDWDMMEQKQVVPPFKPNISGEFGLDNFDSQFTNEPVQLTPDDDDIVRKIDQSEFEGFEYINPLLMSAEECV

PRKCQ (human) = PRKCQ (human) (UniProt Q04759); details: compound 10.0 µM
PRKX (human) = PRKX (human) (UniProt P51817); details: compound 10.0 µM
Chain of PRKX (human) (P51817 whole entry, looked up): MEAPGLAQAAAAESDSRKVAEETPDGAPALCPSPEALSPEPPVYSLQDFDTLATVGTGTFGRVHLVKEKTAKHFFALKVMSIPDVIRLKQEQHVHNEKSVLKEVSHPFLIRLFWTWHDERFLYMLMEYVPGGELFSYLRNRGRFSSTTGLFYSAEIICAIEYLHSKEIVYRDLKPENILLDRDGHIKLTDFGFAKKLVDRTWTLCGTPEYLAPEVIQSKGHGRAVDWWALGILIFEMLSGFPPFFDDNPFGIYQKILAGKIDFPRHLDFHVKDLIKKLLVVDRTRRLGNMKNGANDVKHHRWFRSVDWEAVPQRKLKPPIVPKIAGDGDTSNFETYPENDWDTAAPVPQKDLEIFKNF

RPS6KA1 KD1 (human) = RPS6KA1 KD1 (human) (UniProt Q15418); details: compound 10.0 µM
RPS6KA2 KD1 (human) = RPS6KA2 KD1 (human) (UniProt Q15349); details: compound 10.0 µM
RPS6KA3 KD1 (human) = RPS6KA3 KD1 (human) (UniProt P51812); details: compound 10.0 µM
Chain of RPS6KA3 KD1 (human) (P51812 whole entry, looked up): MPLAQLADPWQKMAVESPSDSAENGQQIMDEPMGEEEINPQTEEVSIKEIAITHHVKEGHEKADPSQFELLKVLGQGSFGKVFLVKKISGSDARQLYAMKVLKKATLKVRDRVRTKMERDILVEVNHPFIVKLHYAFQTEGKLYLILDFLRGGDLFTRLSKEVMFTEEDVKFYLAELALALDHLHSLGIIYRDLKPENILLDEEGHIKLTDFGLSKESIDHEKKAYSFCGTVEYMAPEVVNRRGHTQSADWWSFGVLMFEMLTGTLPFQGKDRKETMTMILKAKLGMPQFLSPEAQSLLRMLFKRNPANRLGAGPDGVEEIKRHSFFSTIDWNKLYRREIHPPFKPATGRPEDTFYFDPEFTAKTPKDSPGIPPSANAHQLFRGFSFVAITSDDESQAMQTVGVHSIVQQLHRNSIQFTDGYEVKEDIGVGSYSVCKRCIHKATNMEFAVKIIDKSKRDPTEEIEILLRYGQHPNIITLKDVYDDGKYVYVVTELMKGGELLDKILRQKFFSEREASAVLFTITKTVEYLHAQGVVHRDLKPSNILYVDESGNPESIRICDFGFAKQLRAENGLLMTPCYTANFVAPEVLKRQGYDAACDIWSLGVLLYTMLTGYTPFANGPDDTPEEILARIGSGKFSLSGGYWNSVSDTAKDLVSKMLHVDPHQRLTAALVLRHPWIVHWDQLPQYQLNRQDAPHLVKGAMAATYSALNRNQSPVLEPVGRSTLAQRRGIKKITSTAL

RPS6KA4 KD1 (human) = RPS6KA4 KD1 (human) (UniProt O75676); details: compound 10.0 µM
RPS6KA5 KD1 (human) = RPS6KA5 KD1 (human) (UniProt O75582); details: compound 10.0 µM
RPS6KA6 KD1 (human) = RPS6KA6 KD1 (human) (UniProt Q9UK32); details: compound 10.0 µM
SGK2 (human) = SGK2 (human) (UniProt Q9HBY8); details: compound 10.0 µM
Chain of SGK2 (human) (Q9HBY8 whole entry, looked up): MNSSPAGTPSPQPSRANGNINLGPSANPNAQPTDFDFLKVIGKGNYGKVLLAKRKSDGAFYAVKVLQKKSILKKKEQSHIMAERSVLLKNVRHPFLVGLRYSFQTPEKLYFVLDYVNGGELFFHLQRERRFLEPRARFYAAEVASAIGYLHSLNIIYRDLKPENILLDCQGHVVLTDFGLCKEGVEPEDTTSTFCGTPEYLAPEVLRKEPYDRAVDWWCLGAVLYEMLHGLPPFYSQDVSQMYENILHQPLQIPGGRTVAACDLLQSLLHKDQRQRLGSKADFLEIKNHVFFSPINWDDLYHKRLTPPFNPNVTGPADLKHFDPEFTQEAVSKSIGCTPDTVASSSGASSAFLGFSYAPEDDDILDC

SGK3 (human) = SGK3 (human) (UniProt Q96BR1); details: compound 10.0 µM
STK32B (human) = STK32B (human) (UniProt Q9NY57); details: compound 10.0 µM

Chain of AKT3 (human) (Q9Y243 whole entry, looked up): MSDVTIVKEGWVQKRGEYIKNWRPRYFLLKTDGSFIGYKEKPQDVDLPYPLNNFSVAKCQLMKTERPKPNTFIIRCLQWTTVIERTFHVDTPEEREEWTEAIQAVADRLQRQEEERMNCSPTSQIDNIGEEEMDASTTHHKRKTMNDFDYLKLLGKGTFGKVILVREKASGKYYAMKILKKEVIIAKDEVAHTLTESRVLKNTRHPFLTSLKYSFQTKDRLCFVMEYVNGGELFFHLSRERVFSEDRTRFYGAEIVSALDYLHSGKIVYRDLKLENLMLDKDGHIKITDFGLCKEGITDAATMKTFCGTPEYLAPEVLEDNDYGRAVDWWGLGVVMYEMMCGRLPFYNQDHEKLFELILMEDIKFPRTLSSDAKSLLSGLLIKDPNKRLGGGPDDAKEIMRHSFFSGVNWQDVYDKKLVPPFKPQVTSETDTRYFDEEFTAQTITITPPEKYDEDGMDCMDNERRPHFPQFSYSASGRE
Chain of AURKB (human) (Q96GD4 whole entry, looked up): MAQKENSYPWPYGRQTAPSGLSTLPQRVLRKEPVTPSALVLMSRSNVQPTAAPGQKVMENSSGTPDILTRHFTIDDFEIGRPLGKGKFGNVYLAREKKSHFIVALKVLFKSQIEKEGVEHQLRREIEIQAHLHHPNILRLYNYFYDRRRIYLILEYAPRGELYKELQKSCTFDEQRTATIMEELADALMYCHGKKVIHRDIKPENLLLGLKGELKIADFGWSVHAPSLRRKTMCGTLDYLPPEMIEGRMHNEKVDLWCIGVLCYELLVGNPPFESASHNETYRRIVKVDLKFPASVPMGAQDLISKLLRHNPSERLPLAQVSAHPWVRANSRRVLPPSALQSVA

inhibition (AKT1 (human)) [%] | inhibition (AKT2 (human)) [%] | inhibition (AKT3 (human)) [%] | inhibition (AURKA (human)) [%] | inhibition (AURKB (human)) [%] | inhibition (AURKC (human)) [%] | inhibition (DMPK (human)) [%] | inhibition (PDPK1 (human)) [%] | inhibition (PKN1 (human)) [%] | inhibition (PRKACA (mouse)) [%] | inhibition (PRKACB (human)) [%] | inhibition (PRKCD (human)) [%] | inhibition (PRKCE (human)) [%] | inhibition (PRKCG (human)) [%] | inhibition (PRKCH (human)) [%] | inhibition (PRKCI (human)) [%] | inhibition (PRKCQ (human)) [%] | inhibition (PRKX (human)) [%] | inhibition (RPS6KA1 KD1 (human)) [%] | inhibition (RPS6KA2 KD1 (human)) [%] | Compound | other results
2 | 0 | 0 | 0 | 0 | 2 | 7 | 0 | 0 | 0 | 3 | 0 | 1 | 0 | 0 | 1 | 1 | 0 | 0 | 0 | NC(=O)c1ccc(-c2nc(-c3ccccn3)c(-c3ccc4c(c3)OCCO4)[nH]2)cc1 | inhibition (RPS6KA3 KD1 (human)): 0%; inhibition (RPS6KA4 KD1 (human)): 0%; inhibition (RPS6KA5 KD1 (human)): 2%; inhibition (RPS6KA6 KD1 (human)): 5%; inhibition (SGK2 (human)): 3%; inhibition (SGK3 (human)): 1%; inhibition (STK32B (human)): 0%
0 | 0 | 0 | 0 | 0 | 0 | 0 | 1 | 0 | 1 | 0 | 0 | 0 | 0 | 0 | 0 | 0 | 0 | 0 | 0 | CC(C)N(CCC(=O)c1ccc2ccccc2c1)Cc1ccccc1 | inhibition (RPS6KA3 KD1 (human)): 0%; inhibition (RPS6KA4 KD1 (human)): 0%; inhibition (RPS6KA5 KD1 (human)): 2%; inhibition (RPS6KA6 KD1 (human)): 0%; inhibition (SGK2 (human)): 0%; inhibition (SGK3 (human)): 0%; inhibition (STK32B (human)): 0%
0 | 0 | 0 | 3 | 0 | 8 | 0 | 0 | 0 | 7 | 0 | 1 | 0 | 0 | 0 | 0 | 0 | 0 | 0 | 0 | Cc1ccc(NC(=O)c2cccc(N(C)C)c2)cc1NC(=O)c1ccc(O)cc1 | inhibition (RPS6KA3 KD1 (human)): 0%; inhibition (RPS6KA4 KD1 (human)): 0%; inhibition (RPS6KA5 KD1 (human)): 0%; inhibition (RPS6KA6 KD1 (human)): 0%; inhibition (SGK2 (human)): 0%; inhibition (SGK3 (human)): 0%; inhibition (STK32B (human)): 0%
0 | 0 | 0 | 0 | 0 | 0 | 0 | 0 | 0 | 4 | 0 | 0 | 12 | 0 | 0 | 0 | 0 | 0 | 0 | 0 | Cc1ccccc1C(=O)c1ccc(Nc2ccc(Br)cc2N)cc1Cl | inhibition (RPS6KA3 KD1 (human)): 0%; inhibition (RPS6KA4 KD1 (human)): 0%; inhibition (RPS6KA5 KD1 (human)): 0%; inhibition (RPS6KA6 KD1 (human)): 0%; inhibition (SGK2 (human)): 0%; inhibition (SGK3 (human)): 0%; inhibition (STK32B (human)): 0%

The next lines start with the molecule.

Compound | inhibition (AKT1 (human)) [%] | inhibition (AKT2 (human)) [%] | inhibition (AKT3 (human)) [%] | inhibition (AURKA (human)) [%] | inhibition (AURKB (human)) [%] | inhibition (AURKC (human)) [%] | inhibition (DMPK (human)) [%] | inhibition (PDPK1 (human)) [%] | inhibition (PKN1 (human)) [%] | inhibition (PRKACA (mouse)) [%] | inhibition (PRKACB (human)) [%] | inhibition (PRKCD (human)) [%] | inhibition (PRKCE (human)) [%] | inhibition (PRKCG (human)) [%] | inhibition (PRKCH (human)) [%] | inhibition (PRKCI (human)) [%] | inhibition (PRKCQ (human)) [%] | inhibition (PRKX (human)) [%] | inhibition (RPS6KA1 KD1 (human)) [%] | inhibition (RPS6KA2 KD1 (human)) [%] | other results
CC(C)[C@H](CO)Nc1nc(Nc2cc(N)cc(Cl)c2)c2ncn(C(C)C)c2n1 | 0 | 0 | 0 | 0 | 0 | 0 | 7 | 0 | 0 | 13 | 1 | 6 | 6 | 0 | 10 | 0 | 29 | 6 | 83 | 79 | inhibition (RPS6KA3 KD1 (human)): 77%; inhibition (RPS6KA4 KD1 (human)): 39%; inhibition (RPS6KA5 KD1 (human)): 18%; inhibition (RPS6KA6 KD1 (human)): 55%; inhibition (SGK2 (human)): 2%; inhibition (SGK3 (human)): 5%; inhibition (STK32B (human)): 20%
O=C1NC(=O)C(c2ccccc2[N+](=O)[O-])=C1Nc1ccc(O)c(Cl)c1 | 0 | 0 | 0 | 6 | 12 | 23 | 0 | 0 | 0 | 0 | 5 | 9 | 4 | 0 | 2 | 0 | 0 | 2 | 7 | 0 | inhibition (RPS6KA3 KD1 (human)): 0%; inhibition (RPS6KA4 KD1 (human)): 0%; inhibition (RPS6KA5 KD1 (human)): 0%; inhibition (RPS6KA6 KD1 (human)): 9%; inhibition (SGK2 (human)): 0%; inhibition (SGK3 (human)): 0%; inhibition (STK32B (human)): 0%
Cc1cc2nc3c(=O)[nH]c(=O)nc-3n(C)c2cc1C=O | 24 | 0 | 0 | 5 | 3 | 12 | 0 | 0 | 0 | 11 | 21 | 31 | 13 | 9 | 8 | 0 | 5 | 2 | 0 | 8 | inhibition (RPS6KA3 KD1 (human)): 0%; inhibition (RPS6KA4 KD1 (human)): 0%; inhibition (RPS6KA5 KD1 (human)): 8%; inhibition (RPS6KA6 KD1 (human)): 1%; inhibition (SGK2 (human)): 3%; inhibition (SGK3 (human)): 0%; inhibition (STK32B (human)): 18%
CC(=O)c1c(O)c(C)c(O)c(Cc2c(O)c3c(c(C(=O)/C=C/c4ccccc4)c2O)OC(C)(C)C=C3)c1O | 24 | 0 | 0 | 5 | 10 | 8 | 23 | 0 | 0 | 16 | 22 | 6 | 14 | 26 | 0 | 0 | 9 | 16 | 0 | 9 | inhibition (RPS6KA3 KD1 (human)): 4%; inhibition (RPS6KA4 KD1 (human)): 0%; inhibition (RPS6KA5 KD1 (human)): 0%; inhibition (RPS6KA6 KD1 (human)): 13%; inhibition (SGK2 (human)): 20%; inhibition (SGK3 (human)): 0%; inhibition (STK32B (human)): 23%
CC1=C(O)C(=O)[C@@H]2OC2C1=O (stereo partly drawn) | 0 | 0 | 0 | 0 | 0 | 0 | 0 | 2 | 0 | 0 | 0 | 0 | 0 | 0 | 7 | 0 | 0 | 0 | 5 | 0 | inhibition (RPS6KA3 KD1 (human)): 0%; inhibition (RPS6KA4 KD1 (human)): 0%; inhibition (RPS6KA5 KD1 (human)): 2%; inhibition (RPS6KA6 KD1 (human)): 5%; inhibition (SGK2 (human)): 0%; inhibition (SGK3 (human)): 1%; inhibition (STK32B (human)): 36%
